According to CN110194737A, “一种联水杨醛缩3-氯-2-肼基吡啶席夫碱合成方法与应用” (Harbin University of Science and Technology, priority 2019, dated 2019):

Columns and labels:
[1] = Qualitative/selective recognition of metal ions by the probe, Zn2+ (FIG. 6)
[2] = Qualitative/selective recognition of metal ions by the probe, Cd2+ (FIG. 6); conditions: 100uL of 1×10^-2mol/L Cd2+; probe solution 3mL; EX=350nm, EM=475nm
[3] = Quantitative analysis of Zn2+: linear relation of fluorescence intensity and Zn2+ concentration, detection limit (Examples 8-11, FIG. 5)
[4] = Fluorescence titration of the Schiff base probe with Zn2+ (Examples 2-7, FIG. 4); conditions: for fluorescence intensity: probe 2×10^-5mol/L in methanol, 3mL, EX=350nm, EM=475nm
[5] = Anti-interference of the probe for Zn2+ in the presence of other metal ions (FIG. 7); conditions: for fluorescence intensity: EX=350nm, EM=475nm

In the case of `CC(C)(C)c1cc(C=NNc2ncccc2Cl)c(O)c(-c2cc(C(C)(C)C)cc(C=NNc3ncccc3Cl)c2O)c1` [荧光探针, 5,5'-二叔丁基-2,2'-二羟基联苯-3,3'-二甲醛缩3-氯-2-肼基吡啶席夫碱], the fluorescence intensity ([1]; 100uL of 1×10^-2mol/L Zn2+, probe solution 3mL, EX=350nm, EM=475nm) is reported as 923.5, the “selectivity of recognition of Zn2+” value ([1]; vs 18 other metal ions, 100uL of 1×10^-2mol/L each) is reported as “较好的选择性” and the fluorescence intensity [2] is reported as 300.2. It also gave a fluorescence intensity ([3]; Zn2+ 30μM in the system, EX=350nm, EM=475nm) of 119.8, a fluorescence intensity ([3]; Zn2+ 50μM in the system, EX=350nm, EM=475nm) of 440.2 and a fluorescence intensity ([3]; Zn2+ 70μM in the system, EX=350nm, EM=475nm) of 765.9. For the same compound, the detection limit ([3]; Zn2+, calculated) was 6.05e-08 mol/L, the “linear range of fluorescence intensity vs Zn2+ concentration” value ([3]; good linear relation, EX=350nm, EM=475nm) was 30 to 70 µM and the fluorescence intensity ([4]; 1μL of 1×10^-2mol/L Zn2+ added) was 83.56. The fluorescence intensity ([4]; 6μL of 1×10^-2mol/L Zn2+ added) was 468.2, the fluorescence intensity ([4]; 12μL of 1×10^-2mol/L Zn2+ added) was 852.4 and the fluorescence intensity ([4]; 18μL of 1×10^-2mol/L Zn2+ added) was 952.4. The “visible change under UV lamp” value ([4]; 365nm, after recognition of Zn2+) was “在紫外灯365nm下即可看到明显变化”, the “fluorescence intensity enhancement relative to blank” value ([4]; after recognition of Zn2+ (18μL of 1×10^-2mol/L Zn2+) vs probe blank) was 34 fold and the fluorescence intensity ([4]; probe blank solution without Zn2+, slits 5nm) was 28.02. The fluorescence intensity ([5]; 100uL Zn2+ plus 100uL Ba2+ (1×10^-2mol/L each)) was 694.5, the fluorescence intensity ([5]; 100uL Zn2+ plus equal volume of Ca2+ (1×10^-2mol/L each)) was 914.6 and the “interference by other metal ions in recognition of Zn2+” value ([5]; other metal ions coexisting with Zn2+) was “可避免其它金属离子共存时产生的干扰,可实现对Zn2+的专一性识别”.
